Laboratory results taken from patent publication US20250327028A1, “ENGINEERED PLATELETS AS TARGETED PROTEIN DEGRADERS” (Wisconsin Alumni Research Foundation, priority 2024, published 2025).

Legend:
[1] = test system: HSP90; experiment: Streptavidin-bead immunoprecipitation of biotin-labeled HSP90 in platelets treated with HAC-B; format: cell-based, BALB/c mice
Experimental: The immunoprecipitation assays based on the streptavidin-biotin system were used to evaluate the engineering efficiency of HAC-B on platelets. The fresh platelets were isolated from the whole blood of BALB/c mice as described above. PBS containing PGE1 ([…]) was adopted to dilute the platelets to a final concentration of 1×10^8 platelets/mL, and a total amount of 2×10^8 platelets (2 mL) was assigned for each sample in one tube. The HAC-B stock solution in DMSO was added to each tube at a final concentration of 2.5, 5, or 10 μM, and then the samples were placed in an orbital shaker with a speed of 50 rpm and incubated for 2 h at room temperature (blank DMSO serve as 0 μM). Meanwhile, other tubes containing the same platelet suspensions were added with HAC-B stock solution at a final concentration of 10 μM, which were shaken at the same conditions for 0.5, 1, 2, 3, or 4 h (the platelet suspension that was centrifugated immediately after HAC-B addition serves as the 0 h group). […] The total proteins in the supernatants were quantified through the BCA assay, and 10 μL of lysate supernatants were saved as the input samples. […]

[2] = test system: 4T1 cells; experiment: In-gel fluorescence detection of NA-647 internalization in 4T1 cells cotreated with HAC-B; format: cell-based, murine; settings: 4T1 cells cotreated with HAC-B (all concentrations) and NA-647, 2 h
Experimental: In-gel fluorescence detection: In-gel fluorescence was mainly used to investigate the internalization of NeutrAvidin™_647 in HAC-B-treated cancer cells.
Sample preparation: 4T1 or WT MDA-MB-231 cells were seeded in 6-well culture plates with a density of 5×10^4 cells in each well and cultured for 24 h. If HAI pretreatment was performed, the cells were incubated in the HAI-containing blank medium at different concentrations for 2 h and washed with PBS twice before the following treatments. Then, the cells were treated with free HAC-B or the combinations of various ligands at the indicated concentrations for the predetermined time points. Next, the drug-containing medium was removed, and PBS was used to wash the cells twice, followed by incubating the cells in the blank medium containing NeutrAvidin™ DyLight™ 650 (NA-647, Invitrogen/84607) at 0.5 μM for 1 h. […]
In-gel fluorescence imaging: After 30-min lysis, the lysates were centrifuged at 10,000 g for 10 minutes at 4° C., and the corresponding supernatants were collected, followed by quantification of the total proteins in the supernatant through the BCA assay. […] After the proteins were separated, the gels were subjected to fluorescence imaging with the ChemiDoc™ MP imaging system (Bio-Rad).

With `N#CCN(C(=O)CCCC[C@@H]1SC[C@@H]2NC(=O)N[C@@H]21)S(=O)(=O)c1ccc(C(=O)NCCCn2c(Sc3cc4c(cc3I)OCO4)nc3c(N)ncnc32)cc1` [HAC-B, N-(3-(6-amino-8-((6-iodobenzo[d][1,3]dioxol-5-yl)thio)-9H-purin-9-yl)propyl)-4-(N-(cyanomethyl)-N-(5-((3aS,4S,6aR)-2-oxohexahydro-1H-thieno[3,4-d]imidazol-4-yl)pentanoyl)sulfamoyl)benzamide] the “concentration dependence of HSP90 tethering in platelets” value ([1]; 2 h) was “in a concentration-dependent manner”, the “incubation time at which biotin labeling of HSP90 in platelets approaches a maximum” value ([1]; HAC-B 10 μM) was roughly 2 h and the “internalization of NA-647 on cotreatment” value [2] was “failed to internalize NA-647 in a large quantity within 2 h”.
